Assay results: article PMC10579241, “Impact of trifluoromethyl and sulfonyl groups on the biological activity of novel aryl-urea derivatives: synthesis, in-vitro, in-silico and SAR studies” (Scientific Reports, 2023)
Converted amounts (≈) assume the structure as drawn. Marks after values point to notes of the source that are not given here.

Assays:
[1] = system: Escherichia coli; assay: Agar well diffusion, E. coli; type: cell-based; conditions: Escherichia coli, read-out: Inhibition zones diameter
[2] = system: Candida albicans; assay: Agar well diffusion, C. albicans; type: cell-based
[3] = system: Bacillus mycoides; assay: microbe, parasite or virus in culture; type: cell-based
[4] = system: Escherichia coli; assay: MIC by serial dilution (agar wells), E. coli; type: cell-based
[5] = system: Candida albicans; assay: MIC by serial dilution (agar wells), C. albicans; type: cell-based
[6] = system: human lung carcinoma (A549); assay: cells; type: cell-based
[7] = system: colon cancer (HCT116); assay: cells; type: cell-based; conditions: Homo sapiens
[8] = system: prostate cancer (PC3); assay: cells; type: cell-based; conditions: Homo sapiens, 48 h
[9] = system: hepatocellular carcinoma cell line (HePG2); assay: cells; type: cell-based; conditions: Homo sapiens, 48 h
[10] = system: osteosarcoma cell line (HOS); assay: cells; type: cell-based; conditions: 48 h; for IC50: MTT
[11] = system: pancreatic cancer cell line (PACA2); assay: cells; type: cell-based; conditions: Homo sapiens, PaCa-2, 48 h
[12] = in vitro; type: cell-based; conditions: human, BJ1 normal skin fibroblast cells, 100 μg/mL
[13] = system: normal skin fibroblast cell line (BJ1); assay: cells; type: cell-based; conditions: Homo sapiens, Skin fibroblast, MTT, 48 h
[14] = system: PALB2; assay: qRT-PCR, PALB2 in PACA2 cells; type: cell-based, human; conditions: versus negative untreated sample
[15] = system: BRCA1; assay: qRT-PCR, BRCA1 in PC3 cells; type: cell-based, human; conditions: versus negative samples
[16] = system: TP53; assay: qRT-PCR, TP53 in HCT116 cells; type: cell-based, human; conditions: versus negative samples
Protocol: RNA was extracted from pancreas, prostate, lung and liver cell lines using a total RNA purification kit (Qiagen, Hilden, Germany) according to the manufacturer's instructions. An aliquot of RNA was diluted in RNase-free water to estimate RNA quantity. Aliquots were used immediately for reverse transcription (RT). cDNA synthesis was performed on extracted RNA, which was treated with DNase (Invitrogen, Germany) to remove any possible DNA contamination. The DNase-treated RNA was reverse transcribed into first-strand cDNA using the RevertAid First Strand cDNA Synthesis kit (Fermantas) according to the manufacturer's instructions. Determination of the pancreas, prostate, lung and liver cell line cDNA copy number was carried out using StepOne™ Real-Time PCR System from Applied Biosystems (Thermo Fisher Scientific, Waltham, MA USA). Gene expressions were detected by real-time PCR, which was performed using the Rotor-Gene Q system (Qiagen Company). A 25 µL reaction mixture consisted of 12.5 µL SYBR® Premix Ex TaqTM (TaKaRa, Biotech. Co. Ltd.), 0.5 µL of each primer (10 PMole) (Table 1), 1 µL cDNA (50 ng) and 10.5 µL RNase free water. The optimum amplification conditions were chosen empirically according to each tested gene. Generally, the amplification conditions include initial incubation (95.0 °C for 3 min), then 40 cycles of amplification with denaturation (95.0 °C for 15 s), annealing (55.0 °C for 30 s) and extension (72.0 °C for 30 s) steps then 71 cycles which started at 60.0 °C and then increased about 0.5 °C every 10 s up to 95.0 °C. Mean cycle threshold (Ct) values of triplicate samples are used for analysis. The Ct value indicates the fractional cycle number at which the amount of amplified target reaches a fixed threshold. Data from real-time PCR were analyzed using 2^−∆∆Ct method[38]–[40]. Data were represented as the fold change in target gene expression normalized to a House-Keeping gene (HKG) and relative to the control. β-actin was used as a HKG to normalize input RNA amount, RNA quality and reverse transcription efficiency.

[17] = system: PACA2; assay: DNA damage, comet assay, PACA2; type: cell-based, human
[18] = system: HCT116; assay: DNA damage, comet assay, HCT116; type: cell-based, human
[19] = system: PACA2; assay: DNA fragmentation assay, PACA2; type: cell-based, human
[20] = system: HCT116; assay: DNA fragmentation assay, HCT116; type: cell-based, human
[21] = read-out: Minimum inhibition concentration (MIC)
[22] = 0.00488 mg/mL, 150 µL in DMSO, 15 mm agar well
[23] = 0.00975 mg/mL, 150 µL in DMSO, 15 mm agar well
[24] = 0.0195 mg/mL, 150 µL in DMSO, 15 mm agar well
[25] = 0.0391 mg/mL, 150 µL in DMSO, 15 mm agar well
[26] = 0.0781 mg/mL, 150 µL in DMSO, 15 mm agar well
[27] = 0.1563 mg/mL, 150 µL in DMSO, 15 mm agar well
[28] = 0.3125 mg/mL, 150 µL in DMSO, 15 mm agar well
[29] = 0.625 mg/mL, 150 µL in DMSO, 15 mm agar well
[30] = 1.25 mg/mL, 150 µL in DMSO, 15 mm agar well
[31] = 2.50 mg/mL, 150 µL in DMSO, 15 mm agar well
[32] = 5.00 mg/mL, 150 µL in DMSO, 15 mm agar well
[33] = 10.0 mg/mL, 150 µL in DMSO, 15 mm agar well

Compound: Cc1ccc(S(=O)(=O)NC(=O)Nc2ccc(C(F)(F)F)cc2)cc1 [Compound 7, 4-Methyl-N-[(4-{trifluoromethyl}phenyl)carbamoyl]benzenesulfonamide]
- zone of inhibition at 10000 µg/mL [1]: 30 ± 0.74 mm
- Inhibition zones diameter ([2]; C. albicans, 200 μL of 10 mg/mL in DMSO in 15 mm holes, overnight 37 °C): 37 ± 1.20 mm
- zone of inhibition at 10000 µg/mL ([2]; Candida albicans, read-out: Inhibition zones diameter): 37 mm
- zone of inhibition at 4.88 µg/mL ([3]; read-out: Inhibition zone): 0 mm
- zone of inhibition at 9.75 µg/mL ([3]; read-out: Inhibition zone): 15 mm
- zone of inhibition at 19.5 µg/mL ([3]; read-out: Inhibition zone): 15 mm
- zone of inhibition at 39.1 µg/mL ([3]; read-out: Inhibition zone): 16 mm
- zone of inhibition at 78.1 µg/mL ([3]; read-out: Inhibition zone): 16 mm
- zone of inhibition at 156.3 µg/mL ([3]; read-out: Inhibition zone): 18 mm
- zone of inhibition at 312.5 µg/mL ([3]; read-out: Inhibition zone): 20 mm
- zone of inhibition at 625 µg/mL ([3]; read-out: Inhibition zone): 24 mm
- zone of inhibition at 1250 µg/mL ([3]; read-out: Inhibition zone): 26 mm
- zone of inhibition at 2500 µg/mL ([3]; read-out: Inhibition zone): 27 mm
- zone of inhibition at 5000 µg/mL ([3]; read-out: Inhibition zone): 28 mm
- zone of inhibition at 10000 µg/mL ([3]; read-out: Inhibition zone): 29 mm
- MIC [3, 21]: 9.75 µg/mL (≈ 27.2 µM)
- zone of inhibition at 4.88 µg/mL [4, 22]: 15 mm
- zone of inhibition at 9.75 µg/mL [4, 23]: 16 mm
- zone of inhibition at 19.5 µg/mL [4, 24]: 17 mm
- zone of inhibition at 39.1 µg/mL [4, 25]: 18 mm
- zone of inhibition at 78.1 µg/mL [4, 26]: 19 mm
- zone of inhibition at 156.3 µg/mL [4, 27]: 20 mm
- zone of inhibition at 312.5 µg/mL [4, 28]: 22 mm
- zone of inhibition at 625 µg/mL [4, 29]: 23 mm
- zone of inhibition at 1250 µg/mL [4, 30]: 25 mm
- zone of inhibition at 2500 µg/mL [4, 31]: 26 mm
- zone of inhibition at 5000 µg/mL [4, 32]: 27 mm
- zone of inhibition at 10000 µg/mL [4, 33]: 28 mm
- MIC [4, 21]: 4.88 µg/mL (≈ 13.6 µM)
- zone of inhibition at 4.88 µg/mL [5, 22]: 16 mm
- zone of inhibition at 9.75 µg/mL [5, 23]: 17 mm
- zone of inhibition at 19.5 µg/mL [5, 24]: 17 mm
- zone of inhibition at 39.1 µg/mL [5, 25]: 17 mm
- zone of inhibition at 78.1 µg/mL [5, 26]: 17 mm
- zone of inhibition at 156.3 µg/mL [5, 27]: 18 mm
- zone of inhibition at 312.5 µg/mL [5, 28]: 19 mm
- zone of inhibition at 625 µg/mL [5, 29]: 22 mm
- zone of inhibition at 1250 µg/mL [5, 30]: 25 mm
- zone of inhibition at 2500 µg/mL [5, 31]: 27 mm
- zone of inhibition at 5000 µg/mL [5, 32]: 28 mm
- zone of inhibition at 10000 µg/mL [5, 33]: 29 mm
- MIC [5, 21]: 4.88 µg/mL (≈ 13.6 µM)
- mortality at 100 µg/mL ([6]; A549, 48 h, 100 μg/mL): 100%
- IC50 ([6]; MTT, 48 h): 86.5 ± 1.4 µM
- mortality at 100 µg/mL ([7]; HCT-116, 48 h, 100 μg/mL): 100%
- IC50 ([7]; HCT-116, MTT, 48 h): 93.5 ± 1.4 µM
- mortality at 100 µg/mL ([8]; 100 μg/mL): 100%
- IC50 ([8]; MTT): 91.3 ± 0.28 µM
- mortality at 100 µg/mL ([9]; 100 μg/mL): 100%
- IC50 ([9]; MTT): 97.4 ± 1.11 µM
- mortality at 100 µg/mL ([10]; Homo sapiens, 100 μg/mL): 100%
- IC50 ([10]; Homo sapiens): 102 µM
- IC50 [10]: 102.1 ± 0.95 µM
- mortality at 100 µg/mL ([11]; 100 μg/mL): 100%
- IC50 ([11]; MTT): 44.4 ± 0.57 µM
- mortality at 48 h, 100 µg/mL [12]: 12.3 ± 1.12%
- IC50 [13]: 48.8 ± 0.26 µM
- PALB2 gene expression level [14]: significantly reduced
- BRCA1 gene expression level [15]: decreased significantly
- TP53 gene expression level [16]: suppression
- DNA damaged cells % (mean ± SEM) [17]: 23.52 ± 0.65^a %
- Class 0 (no tail), number of cells ([17]; of 400 cells analyzed): 306
- Class 1 (tail length < diameter of nucleus), number of cells ([17]; of 400 cells analyzed): 35
- Class 2 (tail length between 1 and 2 × the diameter of nucleus), number of cells ([17]; of 400 cells analyzed): 28
- Class 3 (tail length > 2 × the diameter of nucleus), number of cells ([17]; of 400 cells analyzed): 31
- No. of cells, Comets ([17]; of 400 cells analyzed): 94
- DNA damaged cells % (mean ± SEM) [18]: 25.56 ± 0.66^a %
- Class 0 (no tail), number of cells ([18]; of 400 cells analyzed): 298
- Class 1 (tail length < diameter of nucleus), number of cells ([18]; of 400 cells analyzed): 29
- Class 2 (tail length between 1 and 2 × the diameter of nucleus), number of cells ([18]; of 400 cells analyzed): 38
- Class 3 (tail length > 2 × the diameter of nucleus), number of cells ([18]; of 400 cells analyzed): 35
- No. of cells, Comets ([18]; of 400 cells analyzed): 102
- Change (DNA fragmentation versus untreated cells) [19]: 23.10
- DNA fragmentation % M ± SEM ([19]; IC50 concentration, 24 h): 35.2 ± 0.68^a %
- Inhibition ([19]; doxorubicin = 0.0): 28.33
- Change (DNA fragmentation versus untreated cells) [20]: 26.20
- DNA fragmentation % M ± SEM ([20]; IC50 concentration, 24 h): 37.1 ± 0.52^a %
- Inhibition ([20]; doxorubicin = 0.00): 24.76
